Assay in all cases: NCI anticancer screen, dose series, 48 h
For assay [1], the system named is ACHN renal.
The subject of assay [2] is CCRF-CEM leukemia.
In assay [3] the test system is COLO 205 colon.
Assay [4] has as its system MOLT-4 leukemia.
Assay [5] deals with OVCAR-3 ovarian.
In assay [6] the test system is SF-539 CNS.
The test system of assay [7] is RXF 393 renal.
Assay [8] relates to SR leukemia.
The test system of assay [9] is UACC-257 melanoma.
For assay [10], the system named is NCI-H522 lung.

The structures appear in SMILES notation.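 Cultured in 96-well plates, cells were exposed to test compound for 48 hours across five concentrations. The concentration for 50% growth inhibition is given as GI50. TGI marks complete inhibition of growth.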

For `CCN(CCNc1ccc(C)c2sc3cc(Cl)ccc3c(=O)c12)CC(C)O` (configuration not stated), the GI50 was 1.85 µM in [1]; 2.02 µM in assay [2]; 1.72 µM in [3]; 1.62 µM in [4]; 3.62 µM in assay [5]; 1.59 µM in assay [6]. For the same compound, the TGI in assay [1] amounted to 3.48 µM; in assay [2], 4.27 µM; in [3], 3.24 µM; in assay [4], 3.49 µM; in [5] it was 14.3 µM; in assay [6] it was 2.95 µM.
On to `C[C@]12CC[C@@H]3c4ccc(O)cc4CC[C@H]3[C@@H]1CC[C@@H]2NS(=O)(=O)c1cccc(C(F)(F)F)c1`, for which the GI50 in assay [1] was 3.2 µM; in assay [2], 3.46 µM; in [3] it was 2.12 µM; in assay [4] it was 3.2 µM; in assay [5] it was 2.95 µM; in assay [7] it was 2.58 µM. Further, the GI50 in assay [6] is 4.21 µM; in assay [8], 3.98 µM; in [9] it was 3.54 µM. For the same compound, the TGI amounted to 11.4 µM in assay [1]; 24.1 µM in assay [2]; 4.13 µM in [3]; 16.7 µM in assay [4]; 8.6 µM in assay [5]; 6.65 µM in assay [7]. The TGI in assay [6] came to 16.2 µM; in assay [8] it was 27.2 µM; in [9], 15.7 µM.
On to `N#Cc1cccc(C(=O)Nc2cccc(NC(=O)c3cccc(C#N)c3)c2)c1`, for which the GI50 in assay [1] is more than 100 µM; in [3], more than 100 µM; in assay [4] it was 86.5 µM; in assay [10], more than 100 µM; in [6], 57.7 µM; in assay [9], more than 100 µM. Also, the TGI in assay [1], in [3], in assay [4], in assay [10], in [6] and in [9] was more than 100 µM throughout.
As to `O=C(/C=C/c1ccc(Cl)c(Cl)c1)c1ccc(F)cc1`, the TGI stood at 31.6 µM in assay [1]; 20.5 µM in [2]; 52 µM in assay [3]; 38 µM in assay [4]; 18.5 µM in assay [10]; 38.1 µM in assay [5]. Besides, the TGI in [6] was 38.2 µM; in assay [9], 58 µM.
Turning to `COCC1N=C(c2cc(OC)c(OC)c(OC)c2-c2cc3c(cc2C2OCCCO2)OCO3)O[C@H]1c1ccccc1` (some centres not stated), the TGI in assay [1], in assay [2], in assay [4], in assay [10], in assay [5] and in [7] was more than 100 µM throughout. Moreover, the TGI in assay [6] and in assay [9] was more than 100 µM each time.
Take `COc1ccc(C2=NN(C(=O)COc3ccc(Cl)cc3)C(O)(c3ccc(Cl)cc3)C2)cc1` (configuration not stated): the TGI in assay [1], in assay [3], in assay [4], in [10], in assay [5] and in [6] was more than 100 µM throughout. In addition, the TGI in assay [9] was more than 100 µM.
`NC(=NC1CCCCCCC1)c1ccc(N2CCN(c3ccc(C(N)=NC4CCCCCCC4)cc3)CC2)cc1`: the GI50 in [1] was 22.7 µM; in assay [2], 89.8 µM; in assay [3], 13.3 µM; in [4] it was 47.8 µM; in assay [10] it was 12.8 µM; in assay [5] it was 1.73 µM. Moreover, the GI50 in assay [8] is 26.6 µM. In addition, the TGI in assay [1] is more than 100 µM; in assay [2], more than 100 µM; in assay [3], 39.3 µM; in [4], more than 100 µM; in assay [10] it was 52.2 µM; in assay [5] it was 13.8 µM. In assay [8], this compound came in with a TGI of more than 100 µM.
For the compound `CCCCCCCCC(=O)N(C)C1C2CN3CCC(O2)C13` (configuration not stated), the TGI in assay [1], in assay [2], in assay [3], in [4], in [10] and in assay [5] was more than 100 µM in each case. Also, the TGI in assay [7], in assay [6] and in assay [9] was more than 100 µM throughout.
Regarding `O=c1c(Sc2c(O)c3ccccc3c3ccccc3c2=O)c(O)c2ccccc2c2ccccc12`, the TGI in assay [1] is 78.5 µM; in assay [2], 56.6 µM; in [3] it was more than 100 µM; in [4] it was 73.8 µM; in assay [10] it was 47.8 µM; in [5] it was more than 100 µM. The TGI in assay [7], in assay [6] and in [9] was more than 100 µM each time.
Take `[C-]#[O+].[C-]#[O+].[C-]#[O+].[C-]#[O+].[Ir].[Ir].[O-]c1ccc2ccccc2c1C=Nc1ccc(N=Cc2c([O-])ccc3ccccc23)cc1`: the GI50 in assay [1] is more than 100 µM; in assay [2] it was 66 µM; in assay [3] it was more than 100 µM; in [4], 37.1 µM; in assay [5], more than 100 µM; in assay [7] it was more than 100 µM. In addition, the GI50 in assay [6], in assay [8] and in assay [9] was more than 100 µM throughout. Further, the TGI in assay [1], in assay [2], in assay [3], in assay [4], in assay [5] and in assay [7] was more than 100 µM in each case. Besides, the TGI in assay [6], in assay [8] and in assay [9] was more than 100 µM throughout.
Consider `CC1CC2C(=O)N(c3ccccc3)C(=O)C2c2c1c1ccccc1n2Cc1ccccc1` (configuration not stated), for which the TGI in assay [1] was more than 100 µM; in assay [2], more than 100 µM; in assay [3], more than 100 µM; in assay [4], more than 100 µM; in assay [10], 92.3 µM; in assay [5], more than 100 µM. Moreover, the TGI in [6] and in assay [8] was more than 100 µM in each case.
`C=C1CC2(C[C@@H](c3ccccc3)O[C@@H](c3ccccc3)C2)OC1=O` (some centres not stated): the TGI was 9.01 µM in assay [1]; 5.34 µM in assay [2]; 4.45 µM in assay [3]; 5.61 µM in [4]; 3.02 µM in [10]; 6.07 µM in assay [5]. Moreover, the TGI in [7] amounted to 3.55 µM; in assay [6], 4.94 µM; in assay [9] it was 10.8 µM.
As for `Cn1ccc2c(c1=O)C(=O)c1nccc3c1c-2nc1ccccc13`, the GI50 was 1.59 µM in [1]; 2.21 µM in assay [2]; 1.57 µM in assay [3]; 2.26 µM in assay [4]; 1.49 µM in assay [7]; 1.83 µM in [6]. The TGI in assay [1] was 2.99 µM; in [2] it was more than 100 µM; in [3], 2.96 µM; in assay [4] it was 7.01 µM; in assay [7] it was 2.95 µM; in assay [6], 3.42 µM.
Regarding `O=C(O)CCSCCCN1C(=O)c2ccccc2C1=O`, the TGI in [1], in assay [3], in [4], in [5], in assay [7] and in [6] was more than 100 µM throughout. For the same compound, the TGI in assay [8] and in assay [9] was more than 100 µM each time.
With `COc1ccc(-c2cc(-c3ccccc3)nc(N3CCN(CCNc4ccnc5cc(Cl)ccc45)CC3)n2)cc1`, the GI50 in assay [1] was 3.8 µM; in assay [2], 2.19 µM; in assay [3], 1.17 µM; in assay [5], 1.89 µM; in assay [7], 0.842 µM; in assay [6] it was 1.53 µM. Besides, the GI50 in assay [8] was 0.31 µM. Also, the TGI was 14.4 µM in [1]; more than 100 µM in [2]; 2.66 µM in [3]; 3.69 µM in assay [5]; 2.27 µM in assay [7]; 3.06 µM in assay [6]. The compound also registered a TGI in [8] of more than 100 µM.
`N#Cc1c(N)nc(N2CCOCC2)c(C#N)c1-c1ccc(Cl)cc1`: the GI50 in assay [2] is 34.5 µM; in [3], 48.5 µM; in assay [4] it was 43.7 µM; in [5], 27.8 µM; in [7], 0.475 µM; in assay [6], 49 µM. Further, the GI50 in [9] was 40.8 µM. Besides, the TGI in [2] was more than 100 µM; in [3] it was more than 100 µM; in [4], more than 100 µM; in assay [5], more than 100 µM; in [7], 45.1 µM; in assay [6] it was more than 100 µM. The compound further had a TGI in [9] of more than 100 µM.
Regarding `Cc1cc(C)c2c(c1)Nc1ccccc1P2c1ccccc1` (configuration not stated), the TGI is more than 100 µM in assay [3], more than 100 µM in [4], 61 µM in assay [5] and more than 100 µM in [7].
As to `CC(C)[C@@]12C[C@@H](OC(=O)COC(=O)/C=C/c3ccccc3)[C@@](C)(O1)[C@@H]1CC[C@@H](C)[C@H]1[C@@H]2OC(=O)/C=C/c1ccccc1`, the GI50 in [1] is 0.0591 µM; in assay [2], more than 100 µM; in assay [3] it was more than 100 µM; in [4], more than 100 µM; in assay [10], more than 100 µM; in assay [5], more than 100 µM. The GI50 in [7] was 0.618 µM; in assay [6] it was more than 100 µM; in [9] it was more than 100 µM. Besides, the TGI in [1] is 0.443 µM; in [2], more than 100 µM; in assay [3] it was more than 100 µM; in assay [4] it was more than 100 µM; in assay [10], more than 100 µM; in [5], more than 100 µM. Further, the TGI in assay [7], in [6] and in assay [9] was more than 100 µM throughout.
Consider `CN(c1ccc(NC(=O)Nc2ccc(OC(F)(F)F)cc2)cc1)c1ccnc(Nc2cccc(S(N)(=O)=O)c2)n1`, for which the GI50 was 5.42 µM in assay [1]; 0.412 µM in assay [2]; 0.317 µM in assay [3]; 1.11 µM in assay [4]; 3.41 µM in assay [10]; 3.05 µM in assay [5]. The figures for the GI50 in [7], in [6] and in assay [9] were 2.13 µM, 0.591 µM and 3.77 µM, respectively. Besides, the TGI in assay [1] turned out to be 15.5 µM; in [2], 25 µM; in assay [3], 3.5 µM; in [4], 4.16 µM; in assay [10], 7.36 µM; in assay [5], 6.69 µM. The TGI was 6.04 µM in assay [7], 5.47 µM in assay [6] and 9.14 µM in [9].
In the case of `CC(=O)Nc1ccc(/C=N\N2C(=O)c3ccccc3C2=O)cc1`, the TGI in assay [1], in assay [2], in [4], in assay [5], in assay [7] and in assay [6] was more than 100 µM throughout. The TGI in assay [8] and in assay [9] was more than 100 µM each time.
Turning to `Fc1cccc2cc3ccc4cccc5ccc(c12)c3c45`, the TGI in [1], in assay [2], in assay [3], in [4], in assay [10] and in assay [5] was more than 100 µM each time. Besides, the TGI in assay [7], in [6] and in assay [9] was more than 100 µM throughout.
For `O=c1[nH]nc2ccccc2c1Cl`, the TGI worked out at 30.8 µM in [1]; 34.9 µM in assay [2]; 23.4 µM in assay [3]; 36.8 µM in assay [4]; 6.21 µM in assay [5]; 29.9 µM in assay [6]. Moreover, in assay [9], the TGI was 29.7 µM.
As to `CC(C)C[C@H](NC(=O)[C@H]1O[C@@H]1C(=O)O)C(=O)NCCc1ccc(O)cc1`, the GI50 in assay [1], in assay [2], in assay [3], in [4], in assay [10] and in assay [5] was more than 100 µM throughout. Further, the GI50 in assay [7], in assay [6] and in assay [9] was more than 100 µM throughout. The TGI in assay [1], in [2], in [3], in assay [4], in assay [10] and in [5] was more than 100 µM throughout. For the same compound, the TGI in [7], in assay [6] and in [9] was more than 100 µM throughout.

The record behind these values is PubChem BioAssay (NCI).
